Patent publication US20260347338A1, “PYRIMIDINE/PYRIDINE DERIVATIVES OR SALTS THEREOF AND PHARMACEUTICAL COMPOSITIONS COMPRISING THE SAME” (YUHAN CORPORATION, priority 2023, published 2026)
Where a name gives a salt, the structure may show the parent alone.

Biological target: T1, human recombinant HPK1 (Homo sapiens, UniProt Q92918)
T1 construct: purchased BPS Bioscience
Assay: Inhibitory activity against human recombinant HPK1 (TR-FRET)
Assay type: biochemical
Details: ULight-p70S6K peptide, ATP at Km, room temperature, 1 hour, 0.32 to 1000 nM compound
Procedure, shortened: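 Recombinant human HPK1 with ULight-p70S6K peptide and ATP at Km, 1 h at room temperature in HEPES pH 7.4 buffer with Mg2+, Mn2+, EGTA, DTT; compounds 0.32–1000 nM final. EDTA stop, Eu-anti-phosphopeptide TR-FRET read (665 nm); IC50 from % inhibition versus DMSO, binned A–D at 10, 50, 100 nM.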

T1 sequence (Q92918 whole entry): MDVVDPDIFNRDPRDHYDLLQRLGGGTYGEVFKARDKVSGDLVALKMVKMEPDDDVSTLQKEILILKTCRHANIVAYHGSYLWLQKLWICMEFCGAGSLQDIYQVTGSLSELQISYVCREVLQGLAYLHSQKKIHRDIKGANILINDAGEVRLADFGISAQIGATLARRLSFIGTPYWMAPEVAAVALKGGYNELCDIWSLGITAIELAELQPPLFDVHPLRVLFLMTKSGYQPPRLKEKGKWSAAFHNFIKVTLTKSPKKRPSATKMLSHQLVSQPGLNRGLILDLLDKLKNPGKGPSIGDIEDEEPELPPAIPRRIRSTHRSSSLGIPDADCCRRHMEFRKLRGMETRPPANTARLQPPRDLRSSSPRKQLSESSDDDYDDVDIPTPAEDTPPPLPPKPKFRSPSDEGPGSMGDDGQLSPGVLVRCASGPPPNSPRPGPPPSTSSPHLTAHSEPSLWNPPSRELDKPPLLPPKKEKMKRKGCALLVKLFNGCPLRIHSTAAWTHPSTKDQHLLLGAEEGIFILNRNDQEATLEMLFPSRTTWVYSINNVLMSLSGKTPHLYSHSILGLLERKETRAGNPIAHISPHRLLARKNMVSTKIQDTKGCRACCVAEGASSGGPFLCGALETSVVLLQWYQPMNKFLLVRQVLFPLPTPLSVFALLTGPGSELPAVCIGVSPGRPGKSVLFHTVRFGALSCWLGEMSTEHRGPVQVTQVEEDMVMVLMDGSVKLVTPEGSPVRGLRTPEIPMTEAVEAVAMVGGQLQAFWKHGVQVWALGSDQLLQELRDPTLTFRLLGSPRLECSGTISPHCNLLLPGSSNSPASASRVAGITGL

| IC50 | Compound |
| --- | --- |
| ≤ 10 nM | COc1cc(F)cc(F)c1-c1nc(Nc2cc(N3CC[C@@H](C)[C@H](N)C3)c(-c3cnn(C(F)F)c3)cn2)ccc1C#N [Example 338, 6-((4-((3S,4R)-3-amino-4-methylpiperidin-1-yl)-5-(1-(difluoromethyl)-1H-pyrazol-4-yl)pyridin-2-yl)amino)-2-(2,4-difluoro-6-methoxyphenyl)nicotinonitrile hydrochloride] |
| ≤ 10 nM | COc1cc(F)cc(F)c1-c1nccc(Nc2cc(N3CC[C@@H](F)[C@H](N)C3)c(-c3cnn(C(C)C)c3)cn2)n1 [Example 339, N-(4-((3R,4R)-3-amino-4-fluoropiperidin-1-yl)-5-(1-isopropyl-1H-pyrazol-4-yl)pyridin-2-yl)-2-(2,4-difluoro-6-methoxyphenyl)pyrimidin-4-amine hydrochloride] |
| ≤ 10 nM | (S)-N-(4-(3-aminopiperidin-1-yl)-5-((tetrahydro-2H-pyran-4-yl)ethynyl)pyridin-2-yl)-2-(7-fluoroquinoxalin-6-yl)pyrimidin-4-amine hydrochloride [Example 90] |

Further lines, the compound ahead of its results:

| Compound | IC50 |
| --- | --- |
| COc1cccc(F)c1-c1nc(Nc2cc(N3CC[C@@H](C)[C@H](N)C3)c(-c3cnn(C(F)F)c3)cn2)ccc1C#N [Example 337, 6-((4-((3S,4R)-3-amino-4-methylpiperidin-1-yl)-5-(1-(difluoromethyl)-1H-pyrazol-4-yl)pyridin-2-yl)amino)-2-(2-fluoro-6-methoxyphenyl)-nicotinonitrile hydrochloride] | ≤ 10 nM |
| COc1cc(F)cc(F)c1-c1nc(Nc2cc(N3CC[C@@H](F)[C@H](N)C3)c(-c3cnn(C(C)C)c3)cn2)ccc1C#N [Example 340, 6-((4-((3R,4R)-3-amino-4-fluoropiperidin-1-yl)-5-(1-isopropyl-1H-pyrazol-4-yl)pyridin-2-yl)amino)-2-(2,4-difluoro-6-methoxyphenyl)nicotinonitrile hydrochloride] | ≤ 10 nM |
| COc1cccc(F)c1-c1nc(Nc2cc(N3CC[C@@H](F)[C@H](N)C3)c(-c3cnn(C(F)F)c3)cn2)ccc1F [Example 341, 4-((3R,4R)-3-amino-4-fluoropiperidin-1-yl)-5-(1-(difluoromethyl)-1H-pyrazol-4-yl)-N-(5-fluoro-6-(2-fluoro-6-methoxyphenyl)pyridin-2-yl)pyridin-2-amine hydrochloride] | ≤ 10 nM |
| (S)-1-(6′-ethoxy-6-((2-(2-fluoro-6-methoxyphenyl)pyrimidin-4-yl)amino)-[3,3′-bipyridin]-4-yl)piperidin-3-ol [Example 56] | 10 to 50 nM |
